Assay results from patent US20170190671A1, “BIS(ARYL)CATECHOL DERIVATIVES AS HERBICIDES” (E I DU PONT DE NEMOURS AND COMPANY, priority 2014, published 2017).

Legend:
Assay in all cases: Test F preemergence
Assay type in all cases: in vivo
Details in all cases: 21 days, scale 0 to 100
[1] = tested on: ragweed (common ragweed, Ambrosia elatior)
Text: (§1) Seeds of plant species selected from bermudagrass (Cynodon dactylon), Surinam grass (Brachiaria decumbens), large (Lg) crabgrass (Digitaria sanguinalis), crabgrass, naked (naked crabgrass, Digitaria nuda), foxtail, green (green foxtail, Setaria viridis), johnsongrass (Sorghum halepense), kochia (Kochia scoparia), morningglory (pitted morningglory, Ipomoea lacunosa), nutsedge, purple (purple nutsedge, Cyperus rotundus), ragweed (common ragweed, Ambrosia elatior), mustard, black (black mustard, Brassica nigra), guineagrass (Panicum maximum), dallisgrass (Paspalum dilatatum), barnyardgrass (Echinochloa crus-galli), sandbur (southern sandbur, Cenchrus echinatus), sowthistle (common sowthistle, Sonchus oleraceous), Italian ryegrass (Lolium multiflorum), signalgrass (broadleaf signalgrass, Brachiaria platyphylla), dayflower (Virginia (VA) dayflower, Commelina virginica), bluegrass (annual bluegrass, Poa annua), quackgrass (Elytrigia repens), mallow (common mallow, Malva sylvestris), buckwheat, wild (wild buckwheat, Polygonum convolvulus), leafy spurge (Euphorbia esula), chickweed (common chickweed, Stellaria media), wild poinsettia (Euphorbia heterophylla), and pigweed (Amaranthus retroflexus) were planted into a blend of loam soil and sand and treated preemergence with test a chemical formulated in a non-phytotoxic solvent mixture which included a surfactant.
(§2) Treated plants and controls were maintained in a greenhouse for 21 days, after which time all species were compared to controls and visually evaluated. Plant response ratings, summarized in Table F, are based on a scale of 0 to 100 where 0 is no effect and 100 is complete control. A dash (-) response means no test result.

[2] = tested on: bermudagrass (Cynodon dactylon)
Text: as §1, §2

[3] = tested on: dayflower (Virginia (VA) dayflower, Commelina virginica)
Text: as §1, §2

[4] = tested on: dallisgrass (Paspalum dilatatum)
Text: as §1, §2

[5] = tested on: Surinam grass (Brachiaria decumbens)
Text: as §1, §2

[6] = tested on: foxtail, green (green foxtail, Setaria viridis)
Text: as §1, §2

[7] = tested on: signalgrass (broadleaf signalgrass, Brachiaria platyphylla)
Text: as §1, §2

[8] = tested on: morningglory (pitted morningglory, Ipomoea lacunosa)
Text: as §1, §2

[9] = tested on: mustard, black (black mustard, Brassica nigra)
Text: as §1, §2

[10] = tested on: buckwheat, wild (wild buckwheat, Polygonum convolvulus)
Text: as §1, §2

[11] = tested on: johnsongrass (Sorghum halepense)
Text: as §1, §2

[12] = tested on: Italian ryegrass (Lolium multiflorum)
Text: as §1, §2

[13] = tested on: chickweed (common chickweed, Stellaria media)
Text: as §1, §2

[14] = tested on: crabgrass, naked (naked crabgrass, Digitaria nuda)
Text: as §1, §2

[15] = tested on: guineagrass (Panicum maximum)
Text: as §1, §2

[16] = tested on: barnyardgrass (Echinochloa crus-galli)
Text: as §1, §2

Compound: N#Cc1cccc(Oc2ncc(Cl)cn2)c1Oc1ncc(Cl)cn1 [Compound 3, 2,3-bis[(5-chloro-2-pyrimidinyl)oxy]benzonitrile]
- Plant response rating, Ragweed ([1]; 62 g ai/ha): 85
- Plant response rating, Ragweed ([1]; 125 g ai/ha): 100
- Plant response rating, Ragweed ([1]; 250 g ai/ha): 100
- Plant response rating, Bermudagrass ([2]; 62 g ai/ha): 100
- Plant response rating, Bermudagrass ([2]; 125 g ai/ha): 100
- Plant response rating, Bermudagrass ([2]; 250 g ai/ha): 100
- Plant response rating, Dayflower, VA ([3]; 62 g ai/ha): 98
- Plant response rating, Dayflower, VA ([3]; 125 g ai/ha): 100
- Plant response rating, Dayflower, VA ([3]; 250 g ai/ha): 100
- Plant response rating, Dallisgrass ([4]; 62 g ai/ha): 100
- Plant response rating, Dallisgrass ([4]; 125 g ai/ha): 100
- Plant response rating, Dallisgrass ([4]; 250 g ai/ha): 100
- Plant response rating, Surinam Grass ([5]; 62 g ai/ha): 75
- Plant response rating, Surinam Grass ([5]; 125 g ai/ha): 100
- Plant response rating, Surinam Grass ([5]; 250 g ai/ha): 100
- Plant response rating, Foxtail, Green ([6]; 62 g ai/ha): 100
- Plant response rating, Foxtail, Green ([6]; 125 g ai/ha): 100
- Plant response rating, Foxtail, Green ([6]; 250 g ai/ha): 100
- Plant response rating, Signalgrass ([7]; 62 g ai/ha): 100
- Plant response rating, Signalgrass ([7]; 125 g ai/ha): 100
- Plant response rating, Signalgrass ([7]; 250 g ai/ha): 100
- Plant response rating, Morningglory, Pitt ([8]; 62 g ai/ha): 100
- Plant response rating, Morningglory, Pitt ([8]; 125 g ai/ha): 100
- Plant response rating, Morningglory, Pitt ([8]; 250 g ai/ha): 100
- Plant response rating, Mustard, Black ([9]; 62 g ai/ha): 100
- Plant response rating, Mustard, Black ([9]; 125 g ai/ha): 100
- Plant response rating, Mustard, Black ([9]; 250 g ai/ha): 100
- Plant response rating, Buckwheat, Wild ([10]; 62 g ai/ha): 100
- Plant response rating, Buckwheat, Wild ([10]; 125 g ai/ha): 100
- Plant response rating, Buckwheat, Wild ([10]; 250 g ai/ha): 100
- Plant response rating, Johnsongrass ([11]; 62 g ai/ha): 75
- Plant response rating, Johnsongrass ([11]; 125 g ai/ha): 100
- Plant response rating, Johnsongrass ([11]; 250 g ai/ha): 100
- Plant response rating, Ryegrass, Italian ([12]; 62 g ai/ha): 95
- Plant response rating, Ryegrass, Italian ([12]; 125 g ai/ha): 100
- Plant response rating, Ryegrass, Italian ([12]; 250 g ai/ha): 100
- Plant response rating, Chickweed ([13]; 62 g ai/ha): 100
- Plant response rating, Chickweed ([13]; 125 g ai/ha): 100
- Plant response rating, Chickweed ([13]; 250 g ai/ha): 100
- Plant response rating, Crabgrass, Naked ([14]; 62 g ai/ha): 100
- Plant response rating, Crabgrass, Naked ([14]; 125 g ai/ha): 100
- Plant response rating, Crabgrass, Naked ([14]; 250 g ai/ha): 100
- Plant response rating, Guineagrass ([15]; 62 g ai/ha): 100
- Plant response rating, Guineagrass ([15]; 125 g ai/ha): 100
- Plant response rating, Guineagrass ([15]; 250 g ai/ha): 100
- Plant response rating, Barnyardgrass ([16]; 62 g ai/ha): 98
- Plant response rating, Barnyardgrass ([16]; 125 g ai/ha): 100
- Plant response rating, Barnyardgrass ([16]; 250 g ai/ha): 100
